Measured values from US20210038607A1, “OXADIAZOLYLTHIOPHENE DERIVATIVES USEFUL AS HISTONE DEACETYLASE INHIBITORS” (Karus Therapeutics Limited, priority 2018, published 2021).

Key:
Human HDAC10 = molecular target: T1, Human HDAC10 (Homo sapiens, UniProt Q969S8); test: HDAC10 biochemical assay, AMC-labeled peptide substrate; conditions: read-out: HDAC Isoform IC50 (nM) 10
T1 construct: Human HDAC10 (a.a. 1-481); GST (N); His (C); host or cells: baculovirus expression system
T1 sequence (Q969S8 1-481): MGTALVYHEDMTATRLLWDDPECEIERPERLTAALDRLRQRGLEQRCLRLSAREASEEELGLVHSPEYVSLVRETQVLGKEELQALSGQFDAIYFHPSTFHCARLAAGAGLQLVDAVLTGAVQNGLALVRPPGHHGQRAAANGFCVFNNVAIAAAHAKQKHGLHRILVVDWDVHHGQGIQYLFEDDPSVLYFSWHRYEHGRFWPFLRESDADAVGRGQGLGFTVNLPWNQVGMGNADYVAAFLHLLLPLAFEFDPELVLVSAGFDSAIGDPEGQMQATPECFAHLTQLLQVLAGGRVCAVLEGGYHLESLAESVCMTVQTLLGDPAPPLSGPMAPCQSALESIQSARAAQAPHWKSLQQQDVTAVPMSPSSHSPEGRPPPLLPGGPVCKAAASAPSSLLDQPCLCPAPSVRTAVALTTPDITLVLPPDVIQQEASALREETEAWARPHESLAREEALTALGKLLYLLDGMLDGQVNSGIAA
Method: (§1) Activity against all zinc-dependent HDACs 1 to 11 was assessed by using an acetylated AMC-labeled peptide substrate. The substrate RHKK(Ac)AMC was used for HDAC1, HDAC2, HDAC3, HDAC6 and HDAC10; the substrate used for HDAC8 was RHK(Ac)K(Ac)AMC. Activity against the class IIa HDACs (HDAC4, 5, 7, 9) and HDAC11 was determined using a class IIa-specific substrate, BOC-Lys(trifluoroacetyl)-AMC (“Trifluoroacetyl Lysine”; see Lahm et al, 2007, PNAS, 104, 17335-17340). All assays were based on the AMC-labeled substrate and developer combination.
(§2) The protocol involved a two-step reaction: first, the substrate with the acetylated lysine side chain is incubated with a sample containing HDAC activity, to produce the deacetylated products, which are then digested in the second step by the addition of developer to produce the fluorescent signal proportional to the amount of deacetylated substrates.
Human HDAC10 (a.a. 1-481), GenBank Accession No. NM_032019 with N-terminal GST tag and C-terminal His tag, MW=78 kDa, expressed in baculovirus expression system.
(§3) Assay Buffer: 50 mM Tris-HCl, pH8.0, 137 mM NaCl, 2.7 mM KCl, 1 mM MgC2. Before use, 1 mg/mL BSA and DMSO are added.
HDAC10: 12 ng/ul HDAC10 and 50 μM HDAC substrate are in the reaction buffer with 1% DMSO final. Incubate for 2 hours at 30° C.
(§4) Stage 1: Deacetylation of substrate by incubation of HDAC enzymes with compounds
(§5) Stage 2: Development by addition of Developer to digest the deacetylated substrate, and generate the fluorescent colour; Detection: 360/460 Ex/Em

Human HDAC11 = molecular target: T2, Human HDAC11 (Homo sapiens, UniProt Q96DB2); test: HDAC11 biochemical assay, class IIa-specific substrate; conditions: read-out: HDAC Isoform IC50 (nM) 11
T2 construct: Human HDAC11 (full length); His (N); host or cells: baculovirus expression system
T2 sequence (Q96DB2 1-347): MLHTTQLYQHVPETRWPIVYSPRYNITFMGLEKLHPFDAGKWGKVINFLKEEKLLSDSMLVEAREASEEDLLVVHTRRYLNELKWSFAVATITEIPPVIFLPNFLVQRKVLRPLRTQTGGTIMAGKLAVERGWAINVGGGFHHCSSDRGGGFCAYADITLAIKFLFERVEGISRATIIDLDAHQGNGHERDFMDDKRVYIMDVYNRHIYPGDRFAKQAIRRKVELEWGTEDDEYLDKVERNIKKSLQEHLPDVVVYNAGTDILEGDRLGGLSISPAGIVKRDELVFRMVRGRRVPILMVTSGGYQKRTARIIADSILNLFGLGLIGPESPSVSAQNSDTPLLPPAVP
Method: as §1, §2
Human HDAC11 (full length) (GenBank Accession No. NM_024827) with N-terminal His tag, MW=42.9 kDa, expressed in baculovirus expression system.
as §3
HDAC11: 5 ng/ul HDAC11 and 50 μMHDAC substrate are in the reaction buffer with 1% DMSO final. Incubate for 30 minutes at 30° C.
as §4, §5

| Compound | IC50 (Human HDAC10) | IC50 (Human HDAC11) |
| --- | --- | --- |
| FC(F)(F)c1nc(-c2ccc(CN(c3cnccn3)c3cc(N4CCCC4)cnn3)s2)no1 [Example FQ, N-(Pyrazin-2-yl)-5-(pyrrolidin-1-yl)-N-({5-[5-(trifluoromethyl)-1,2,4-oxadiazol-3-yl]thiophen-2-yl}methyl)pyridazin-3-amine] | > 10000 nM | > 10000 nM |
| O=C(O)c1ccc(N(Cc2sc(-c3noc(C(F)(F)F)n3)cc2F)c2cnccn2)nn1 [Example EZ, 6-[({3-Fluoro-5-[5-(trifluoromethyl)-1,2,4-oxadiazol-3-yl]thiophen-2-yl}methyl)(pyrazin-2-yl)amino]pyridazine-3-carboxylic acid] | > 10000 nM | > 10000 nM |
| CC(F)(F)c1cnnc(N(Cc2ccc(-c3noc(C(F)(F)F)n3)s2)c2cnccn2)c1 [Example GU, 5-(1,1-Difluoroethyl)-N-(pyrazin-2-yl)-N-({5-[5-(trifluoromethyl)-1,2,4-oxadiazol-3-yl]thiophen-2-yl}methyl)pyridazin-3-amine] | > 10000 nM | > 10000 nM |
| FC(F)(F)c1nc(-c2ccc(CN(c3cnccn3)c3cc(N4CCOCC4)cnn3)s2)no1 [Example FP, 5-(Morpholin-4-yl)-N-(pyrazin-2-yl)-N-({5-[5-(trifluoromethyl)-1,2,4-oxadiazol-3-yl]thiophen-2-yl}methyl)pyridazin-3-amine] | > 10000 nM | > 10000 nM |
| O=C(O)c1cnnc(N(Cc2sc(-c3noc(C(F)(F)F)n3)cc2F)c2cnccn2)c1 [Example FA, 6-[({3-fluoro-5-[5-(trifluoromethyl)-1,2,4-oxadiazol-3-yl]thiophen-2-yl}methyl)(pyrazin-2-yl)amino]pyridazine-4-carboxylic acid] | > 10000 nM | > 10000 nM |
| O=C(c1nccnc1N(Cc1ccc(-c2noc(C(F)(F)F)n2)s1)c1cnccn1)N1CC(O)(C(F)(F)F)C1 [Example GQ, 1-{3-[(Pyrazin-2-yl)({5-[5-(trifluoromethyl)-1,2,4-oxadiazol-3-yl]thiophen-2-yl}methyl)amino]pyrazine-2-carbonyl}-3-(trifluoromethyl)azetidin-3-ol] | > 10000 nM | > 10000 nM |
| FC(F)(F)c1nc(-c2ccc(CN(c3ccccn3)c3ccccn3)s2)no1 [Example U, N-(Pyridin-2-yl)-N-({5-[5-(trifluoromethyl)-1,2,4-oxadiazol-3-yl]thiophen-2-yl}methyl)pyridin-2-amine] | > 10000 nM | > 10000 nM |
| O=C(c1cnnc(N(Cc2ccc(-c3noc(C(F)(F)F)n3)s2)c2cnccn2)c1)N1C2CCC1COC2 [Example GB, 5-{3-Oxa-8-azabicyclo[3.2.1]octane-8-carbonyl}-N-(pyrazin-2-yl)-N-({5-[5-(trifluoromethyl)-1,2,4-oxadiazol-3-yl]thiophen-2-yl}methyl)pyridazin-3-amine] | > 10000 nM | > 10000 nM |
| O=C(c1cnnc(N(Cc2ccc(-c3noc(C(F)(F)F)n3)s2)c2cnccn2)c1)N1CC(O)(C(F)(F)F)C1 [Example GD, 1-{6-[(Pyrazin-2-yl)({5-[5-(trifluoromethyl)-1,2,4-oxadiazol-3-yl]thiophen-2-yl}methyl)amino]pyridazine-4-carbonyl}-3-(trifluoromethyl)azetidin-3-ol] | > 10000 nM | > 10000 nM |
| Fc1ccnc(N(Cc2ccc(-c3noc(C(F)(F)F)n3)s2)c2cnccn2)c1 [Example AG, N-(4-Fluoropyridin-2-yl)-N-({5-[5-(trifluoromethyl)-1,2,4-oxadiazol-3-yl]thiophen-2-yl}methyl)pyrazin-2-amine] | > 10000 nM | > 10000 nM |
| Nc1cnnc(N(Cc2ccc(-c3noc(C(F)(F)F)n3)s2)c2cnccn2)c1 [Example FL, N3-(Pyrazin-2-yl)-N3-({5-[5-(trifluoromethyl)-1,2,4-oxadiazol-3-yl]thiophen-2-yl}methyl)pyridazine-3,5-diamine] | > 10000 nM | > 10000 nM |
| C[C@H]1CCCN1C(=O)c1cnnc(N(Cc2ccc(-c3noc(C(F)(F)F)n3)s2)c2cnccn2)c1 [Example GY, 5-[(2S)-2-Methylpyrrolidine-1-carbonyl]-N-(pyrazin-2-yl)-N-({5-[5-(trifluoromethyl)-1,2,4-oxadiazol-3-yl]thiophen-2-yl}methyl)pyridazin-3-amine] | > 10000 nM | > 10000 nM |

Second part, the compound after the results:

| IC50 (Human HDAC10) | IC50 (Human HDAC11) | Compound |
| --- | --- | --- |
| > 10000 nM | > 10000 nM | CN(C(=O)c1cnnc(N(Cc2ccc(-c3noc(C(F)(F)F)n3)s2)c2cnccn2)c1)S(C)(=O)=O [Example GE, N-Methanesulfonyl-N-methyl-6-[(pyrazin-2-yl)({5-[5-(trifluoromethyl)-1,2,4-oxadiazol-3-yl]thiophen-2-yl}methyl)amino]pyridazine-4-carboxamide] |
| > 10000 nM | > 10000 nM | CC(C)(O)c1cnnc(N(Cc2ccc(-c3noc(C(F)(F)F)n3)s2)c2cnccn2)c1 [Example GS, 2-{6-[(Pyrazin-2-yl)({5-[5-(trifluoromethyl)-1,2,4-oxadiazol-3-yl]thiophen-2-yl}methyl)amino]pyridazin-4-yl}propan-2-ol] |
| > 10000 nM | > 10000 nM | O=C(c1ccc(N(Cc2ccc(-c3noc(C(F)(F)F)n3)s2)c2cnccn2)nn1)N1C[C@@H]2C[C@H]1C[S@@+]2[O-] [Example FR, (1S,2R,4S)-5-{6-[(Pyrazin-2-yl)({5-[5-(trifluoromethyl)-1,2,4-oxadiazol-3-yl]thiophen-2-yl}methyl)amino]pyridazine-3-carbonyl}-2-thia-5-azabicyclo[2.2.1]heptan-2-ium-2-olate] |
| > 10000 nM | > 10000 nM | Cc1nccnc1N(Cc1ccc(-c2noc(C(F)(F)F)n2)s1)c1cnccn1 [Example BE, 3-Methyl-N-(pyrazin-2-yl)-N-({5-[5-(trifluoromethyl)-1,2,4-oxadiazol-3-yl]thiophen-2-yl}methyl)pyrazin-2-amine] |
| > 10000 nM | > 10000 nM | NC(=O)c1nccnc1N(Cc1ccc(-c2noc(C(F)(F)F)n2)s1)c1cnccn1 [Example GO, 3-[(Pyrazin-2-yl)({5-[5-(trifluoromethyl)-1,2,4-oxadiazol-3-yl]thiophen-2-yl}methyl)amino]pyrazine-2-carboxamide] |
| > 10000 nM | > 10000 nM | FC(F)(F)c1nc(-c2ccc(CN(c3cnccn3)c3ncccn3)s2)no1 [Example AS, N-(Pyrimidin-2-yl)-N-({5-[5-(trifluoromethyl)-1,2,4-oxadiazol-3-yl]thiophen-2-yl}methyl)pyrazin-2-amine] |
| > 10000 nM | > 10000 nM | FC(F)(F)c1nc(-c2ccc(CN(c3cnccn3)c3cnc(N4CCOCC4)cn3)s2)no1 [Example BM, 5-(Morpholin-4-yl)-N-(pyrazin-2-yl)-N-({5-[5-(trifluoromethyl)-1,2,4-oxadiazol-3-yl]thiophen-2-yl}methyl)pyrazin-2-amine] |
| > 10000 nM | > 10000 nM | FC(F)(F)c1nc(-c2ccc(CN(c3cnccn3)c3cc(CN4CCCC4)ccn3)s2)no1 [Example GG, N-{4-[(Pyrrolidin-1-yl)methyl]pyridin-2-yl}-N-({5-[5-(trifluoromethyl)-1,2,4-oxadiazol-3-yl]thiophen-2-yl}methyl)pyrazin-2-amine] |
| > 10000 nM | > 10000 nM | O=C(c1cncc(N(Cc2ccc(-c3noc(C(F)(F)F)n3)s2)c2cnccn2)c1)N1CCOCC1 [Example GR, N-[5-(Morpholine-4-carbonyl)pyridin-3-yl]-N-({5-[5-(trifluoromethyl)-1,2,4-oxadiazol-3-yl]thiophen-2-yl}methyl)pyrazin-2-amine] |
